Test results taken from patent publication US5482954A, “Signal transduction inhibitor triazole and diazole compounds” (priority 1994, dated 1996).

Tests used:
Assay type in all cases: cell-based
[1] = system: 5R ras-transfected rat embryo fibroblasts; test: AMF-stimulated cell motility
Protocol: (§1) The cell motility assay has been described. See, Stracke et al., Biochem. Biophys. Res. Comm., 146:339-345 (1987). Cells from the A2058 human melanoma line which was maintained in subconfluent culture were harvested with trypsin-EDTA, and were allowed to recover for 1 hr at room temperature. Cells from the 5R H-ras transformed (diploid) rat embryo fibroblast line were harvested with 2 mM EDTA in PBS without divalent cations. Cells were resuspended in serum-free media containing 0.1% BSA. This DMEM/0.1% BSA was used as the control for all subsequent assays. The assays were performed in triplicate using a 48-well chemotaxis chamber with 8μ Nucleopore, type IV collagen-coated filters. The chambers were incubated at 37° C. for 4 hr, stained and placed onto glass slides with the original cell side up so that the cell pellet could be wiped from the surface. Cells that had migrated through the pores were trapped between glass and membrane and could be quantitated by laser densitometry.
(§2) Compound 1 was preincubated with the cells for various periods of time, added at the start of the assay, or added later. Additionally, compound 1 remained present during the motility assay. The cells were assayed for their motile response to AMF. AMF stimulates random and directed locomotion of 5R ras-transfected rat embryo fibroblasts and A2058 human melanoma cells. […] Cell viability determined by trypan blue exclusion averaged greater than 96%. Cells exposed to various concentrations of compound 1 were tested for their response to AMF vs. control. Percent stimulated motility (in densitometer units) is defined as: […]
(§3) (AMF stimulated-control)Compound 1 /(AMF stimulated-control)untreated

[2] = system: A2058 human melanoma cells; test: AMF-stimulated cell motility
Protocol: as §1, §2, §3

[3] = system: T24 (EJ) bladder; test: Growth of tumor cell lines; conditions: T-24 human bladder cancer with activated H-ras
Protocol: In one study, the cells were continuously exposed to 20 μM compound 1, and growth inhibition was measured. In a second study, cell lines which only grow in suspension were plated in 24 well plates (50,000 cells/well) and were incubated with increasing concentrations of compound 1. After 72 hr in culture, the cells were harvested, centrifuged,resuspended in a small volume. The number of remaining cells and their viability was determined using a hemocytometer.

[4] = overnight preincubation, AMF stimulation

Which results are given for `NC(=O)c1nnn(Cc2cc(Cl)c(C(=O)c3ccc(Cl)cc3)c(Cl)c2)c1N` [Compound 1]?
inhibition of AMF-stimulated tumor cell motility ([1]; 0.03-10 μg/ml): inhibited AMF-stimulated tumor cell motility in a dose dependent manner; decrease in stimulated motility [1, 4]: up to 55%; inhibition of AMF-stimulated tumor cell motility ([2]; 0.03-10 μg/ml): inhibited AMF-stimulated tumor cell motility in a dose dependent manner; inhibition of motility, combination of 1 and PT vs either alone ([2]; 1 (1 μg/ml) + PT (0.1 μg/ml), data not shown, cell line not stated): did not result in greater inhibition of motility than either drug alone; decrease in stimulated motility [2, 4]: up to 55%; inhibition of motility ([2]; same dose as PI assay (1.0 μg/mL)): 45%; inhibition of proliferation [3]: inhibited proliferation
